Activity calls are given as the source filed them. How the calls were made is not given here.
Test system: CCRIS mutagenicity, Ames/micronucleus/aberration tests
Experiment: CCRIS mutagenicity studies
[1] = Test System: AMES SALMONELLA TYPHIMURIUM, Strain/Indicator: TA98, Metabolic Activation: NONE, Method: PREINCUBATION
[2] = Test System: AMES SALMONELLA TYPHIMURIUM, Strain/Indicator: TA100, Metabolic Activation: NONE, Method: PREINCUBATION
[3] = Test System: AMES SALMONELLA TYPHIMURIUM, Strain/Indicator: TA1535, Metabolic Activation: NONE, Method: PREINCUBATION
[4] = Test System: AMES SALMONELLA TYPHIMURIUM, Strain/Indicator: TA1537, Metabolic Activation: NONE, Method: PREINCUBATION

Q: With `CCN(CC)CCCN(c1ccccc1)C1Cc2ccccc2C1` as the compound, how does the mutagenic call [1] read?
A: inactive; negative

Q: What about the mutagenic call (Test System: AMES SALMONELLA TYPHIMURIUM, Strain/Indicator: TA98, Metabolic Activation: S-9, Method: PREINCUBATION) of the same compound?
A: inactive; negative

Q: What about the mutagenic call [2] of the same compound?
A: inactive; negative

Q: What about the mutagenic call (Test System: AMES SALMONELLA TYPHIMURIUM, Strain/Indicator: TA100, Metabolic Activation: S-9, Method: PREINCUBATION) of the same compound?
A: inactive; negative

Q: And the mutagenic call [3]?
A: inactive; negative

Q: What about the mutagenic call (Test System: AMES SALMONELLA TYPHIMURIUM, Strain/Indicator: TA1535, Metabolic Activation: S-9, Method: PREINCUBATION) of the same compound?
A: inactive; negative

Q: And the mutagenic call [4]?
A: inactive; negative

Q: What about the mutagenic call (Test System: AMES SALMONELLA TYPHIMURIUM, Strain/Indicator: TA1537, Metabolic Activation: S-9, Method: PREINCUBATION) of the same compound?
A: inactive; negative

Q: And the mutagenic call (Test System: AMES SALMONELLA TYPHIMURIUM, Strain/Indicator: TA1538, Metabolic Activation: NONE, Method: PREINCUBATION)?
A: inactive; negative

Q: And the mutagenic call (Test System: AMES SALMONELLA TYPHIMURIUM, Strain/Indicator: TA1538, Metabolic Activation: S-9, Method: PREINCUBATION)?
A: inactive; negative

Q: What about the mutagenic call (Test System: E. COLI, Strain/Indicator: WP2 UVRA, Metabolic Activation: NONE, Method: PREINCUBATION) of the same compound?
A: inactive; negative

Q: What about the mutagenic call (Test System: E. COLI, Strain/Indicator: WP2 UVRA, Metabolic Activation: S-9, Method: PREINCUBATION) of the same compound?
A: inactive; negative

Q: With `CO[C@@]1(NC(=O)CSC[C@@H](N)C(=O)O)C(=O)N2C(C(=O)O)=C(CSc3nnnn3C)CS[C@@H]21` as the compound, how does the mutagenic call (Test System: AMES SALMONELLA TYPHIMURIUM, Strain/Indicator: TA98, Metabolic Activation: NONE) read?
A: inactive; negative

Q: And the mutagenic call (Test System: AMES SALMONELLA TYPHIMURIUM, Strain/Indicator: TA98, Metabolic Activation: S-9)?
A: inactive; negative

Q: What about the mutagenic call (Test System: AMES SALMONELLA TYPHIMURIUM, Strain/Indicator: TA100, Metabolic Activation: NONE) of the same compound?
A: inactive; negative

Q: And the mutagenic call (Test System: AMES SALMONELLA TYPHIMURIUM, Strain/Indicator: TA100, Metabolic Activation: S-9)?
A: inactive; negative

Q: And the mutagenic call (Test System: AMES SALMONELLA TYPHIMURIUM, Strain/Indicator: TA1535, Metabolic Activation: NONE)?
A: inactive; negative

Q: What about the mutagenic call (Test System: AMES SALMONELLA TYPHIMURIUM, Strain/Indicator: TA1535, Metabolic Activation: S-9) of the same compound?
A: inactive; negative

Q: What about the mutagenic call (Test System: AMES SALMONELLA TYPHIMURIUM, Strain/Indicator: TA1537, Metabolic Activation: NONE) of the same compound?
A: inactive; negative

Q: What about the mutagenic call (Test System: AMES SALMONELLA TYPHIMURIUM, Strain/Indicator: TA1537, Metabolic Activation: S-9) of the same compound?
A: inactive; negative

Q: And the mutagenic call (Test System: AMES SALMONELLA TYPHIMURIUM, Strain/Indicator: TA1538, Metabolic Activation: NONE)?
A: inactive; negative

Q: What about the mutagenic call (Test System: AMES SALMONELLA TYPHIMURIUM, Strain/Indicator: TA1538, Metabolic Activation: S-9) of the same compound?
A: inactive; negative

Q: What about the mutagenic call (Test System: E. COLI, Strain/Indicator: WP2 UVRA, Metabolic Activation: NONE) of the same compound?
A: inactive; negative

Q: What about the mutagenic call (Test System: E. COLI, Strain/Indicator: WP2 UVRA, Metabolic Activation: S-9) of the same compound?
A: inactive; negative

Q: For `[O-][n+]1cc2cnccc2cn1`, which mutagenic call [1] is on record?
A: active; positive

Q: And the mutagenic call (Test System: AMES SALMONELLA TYPHIMURIUM, Strain/Indicator: TA98, Metabolic Activation: RAT, LIVER, S-9, PCB, Method: PREINCUBATION)?
A: active; positive

Q: And the mutagenic call [2]?
A: inactive; negative

Q: What about the mutagenic call (Test System: AMES SALMONELLA TYPHIMURIUM, Strain/Indicator: TA100, Metabolic Activation: RAT, LIVER, S-9, PCB, Method: PREINCUBATION) of the same compound?
A: inactive; negative

Q: With `CC(C)(C)OO` as the compound, how does the mutagenic call (End Point: In vitro micronucleus, Test System: Chinese hamster V79 cells, Metabolic Activation: None) read?
A: active; positive (hibiscus tiliaceus l methanolic extract at doses above 0.010 mg/ml had

Q: And the mutagenic call (Test System: AMES SALMONELLA TYPHIMURIUM, Strain/Indicator: TA98, Metabolic Activation: HAMSTER, LIVER, S-9, AROCLOR 1254, Method: PREINCUBATION)?
A: inactive; negative

Q: What about the mutagenic call [1] of the same compound?
A: inactive; negative

Q: What about the mutagenic call (Test System: AMES SALMONELLA TYPHIMURIUM, Strain/Indicator: TA98, Metabolic Activation: RAT, LIVER, S-9, AROCLOR 1254, Method: PREINCUBATION) of the same compound?
A: inactive; negative

Q: And the mutagenic call (Test System: AMES SALMONELLA TYPHIMURIUM, Strain/Indicator: TA100, Metabolic Activation: HAMSTER, LIVER, S-9, AROCLOR 1254, Method: PREINCUBATION)?
A: inactive; negative

Q: And the mutagenic call [2]?
A: inactive; negative

Q: And the mutagenic call (Test System: AMES SALMONELLA TYPHIMURIUM, Strain/Indicator: TA100, Metabolic Activation: RAT, LIVER, S-9, AROCLOR 1254, Method: PREINCUBATION)?
A: inactive; negative

Q: And the mutagenic call (Test System: AMES SALMONELLA TYPHIMURIUM, Strain/Indicator: TA102, Metabolic Activation: NONE, Method: STANDARD PLATE)?
A: active; positive

Q: And the mutagenic call (Test System: AMES SALMONELLA TYPHIMURIUM, Strain/Indicator: TA1535, Metabolic Activation: HAMSTER, LIVER, S-9, AROCLOR 1254, Method: PREINCUBATION)?
A: inactive; negative

Q: What about the mutagenic call [3] of the same compound?
A: inactive; negative

Q: What about the mutagenic call (Test System: AMES SALMONELLA TYPHIMURIUM, Strain/Indicator: TA1535, Metabolic Activation: RAT, LIVER, S-9, AROCLOR 1254, Method: PREINCUBATION) of the same compound?
A: inactive; negative

Q: What about the mutagenic call (Test System: AMES SALMONELLA TYPHIMURIUM, Strain/Indicator: TA1537, Metabolic Activation: HAMSTER, LIVER, S-9, AROCLOR 1254, Method: PREINCUBATION) of the same compound?
A: active; positive

Q: And the mutagenic call [4]?
A: active; positive

Q: What about the mutagenic call (Test System: AMES SALMONELLA TYPHIMURIUM, Strain/Indicator: TA1537, Metabolic Activation: RAT, LIVER, S-9, AROCLOR 1254, Method: PREINCUBATION) of the same compound?
A: active; positive

Q: And the mutagenic call (Test System: AMES SALMONELLA TYPHIMURIUM, Strain/Indicator: TA2638, Metabolic Activation: NONE, Method: STANDARD PLATE)?
A: active; positive

Q: And the mutagenic call (Test System: AMES SALMONELLA TYPHIMURIUM, Strain/Indicator: TA2638A, Metabolic Activation: NONE, Method: STANDARD PLATE)?
A: active; positive

Q: What about the mutagenic call (Test System: E. COLI, Strain/Indicator: IC202, Metabolic Activation: NONE, Method: STANDARD PLATE) of the same compound?
A: active; positive

Q: What about the mutagenic call (Test System: E. COLI, Strain/Indicator: IC203, Metabolic Activation: NONE, Method: STANDARD PLATE) of the same compound?
A: active; positive

Q: What about the mutagenic call (Test System: E. COLI, Strain/Indicator: IC5059, Metabolic Activation: NONE, Method: STANDARD PLATE) of the same compound?
A: active; positive

Q: And the mutagenic call (Test System: E. COLI, Strain/Indicator: IC5064, Metabolic Activation: NONE, Method: STANDARD PLATE)?
A: active; positive

Q: What about the mutagenic call (Test System: E. COLI, Strain/Indicator: IC5184, Metabolic Activation: NONE, Method: STANDARD PLATE) of the same compound?
A: active; positive

Q: What about the mutagenic call (Test System: E. COLI, Strain/Indicator: IC5185, Metabolic Activation: NONE, Method: STANDARD PLATE) of the same compound?
A: active; positive

Q: And the mutagenic call (Test System: E. COLI, Strain/Indicator: WP2 (PKM101), Metabolic Activation: NONE, Method: STANDARD PLATE)?
A: active; positive

Q: What about the mutagenic call (Test System: E. COLI, Strain/Indicator: WP2 UVRA (PKM101), Metabolic Activation: NONE, Method: STANDARD PLATE) of the same compound?
A: active; positive

Q: What about the mutagenic call (Test System: E. coli, Strain/Indicator: WP2 IC185 trpE65, Metabolic Activation: None, Method: Plate incorporation (Test material solvent: 1 x M9 buffer)) of the same compound?
A: active; positive. linalool, myrcene and eycalyptol did not inhibit mutagenesis.

Q: And the mutagenic call (Test System: E. coli, Strain/Indicator: WP2 IC202 trpE65 oxyR/pKM101, Metabolic Activation: None, Method: Plate incorporation (Test material solvent: 1 x M9 buffer))?
A: active; positive. linalool, myrcene and eycalyptol inhibited mutagenesis.

Q: `CCc1c2ccccc2cc2c1c1c(c3ccccc32)N1` was tested. Which mutagenic call [1] did it give?
A: active; positive

Reference: PubChem BioAssay AID1259407 (Chemical Carcinogenesis Research Information System (CCRIS), 2018)
